This passage reports Ki results from patent US20050209278A1, “Piperidinyl- and piperazinyl-sulfonylmethyl hydroxamic acids and their use as protease inhibitors” (priority 2002, published 2005).

Where only a bound is given, the exact number is not on record here.

Usually Ki stands for a measure of affinity in units of concentration, obtained from inhibition or displacement.

This assay has as its target T1, MMP-1 (Homo sapiens, UniProt P03956).
T1 construct: made in house; host or cells: MMP-1-transfected HT-1080 cells (spent media)
T1 sequence (P03956 100-469): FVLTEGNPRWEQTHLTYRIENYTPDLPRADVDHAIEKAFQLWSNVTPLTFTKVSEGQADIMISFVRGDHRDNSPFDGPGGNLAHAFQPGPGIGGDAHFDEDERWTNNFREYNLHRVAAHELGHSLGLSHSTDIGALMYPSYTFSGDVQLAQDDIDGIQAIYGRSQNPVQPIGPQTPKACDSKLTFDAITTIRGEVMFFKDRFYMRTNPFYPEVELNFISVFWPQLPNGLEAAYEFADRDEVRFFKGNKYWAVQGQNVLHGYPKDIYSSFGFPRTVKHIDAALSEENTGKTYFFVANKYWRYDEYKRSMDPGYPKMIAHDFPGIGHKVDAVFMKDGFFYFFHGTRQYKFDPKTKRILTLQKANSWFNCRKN
As to the kind of experiment: In vitro MMP inhibition, Ki determination (fluorogenic substrate II). The class given is biochemical. Particulars: value outside parentheses; read-out: MMP-1 Ki.
As to `O=C(NO)C1(S(=O)(=O)N2CCC(COCc3ccc(OC(F)(F)F)cc3)CC2)CCOCC1` [Example 404], the Ki was > 10 µM.
In the case of `O=C(NO)C1(S(=O)(=O)N2CCC(c3ccc(-c4cccc(F)c4)cn3)CC2)CCOCC1` [Example 417], the Ki is 1.83 µM.
As for `O=C(NO)C1(S(=O)(=O)N2CCC(c3ccc(-c4cccs4)c(F)c3)CC2)CCOCC1` [Example 407], the Ki was > 10 µM.
As for `CCCCCC/C=C/C1CCN(S(=O)(=O)C2(C(=O)NO)CCOCC2)CC1` [Example 402], the figure is 3.65 µM; as for `O=C(NO)C1(S(=O)(=O)N2CCC(COCc3ccc(SC(F)(F)F)cc3)CC2)CCOCC1` [Example 405], 8.32 µM.
To `O=C(NO)C1(S(=O)(=O)N2CCC(c3ccc(OCCC(F)(F)F)cn3)CC2)CCOCC1` [Example 418] belongs 3.08 µM; to `CCCCOc1ccc(C2CCN(S(=O)(=O)C3(C(=O)NO)CCOCC3)CC2)nc1` [Example 410], 3.49 µM.
With `Cc1cccc(-c2csc(N3CCN(S(=O)(=O)C4(C(=O)NO)CCOCC4)CC3)n2)c1` [Example 413], the Ki was > 10 µM.
For the compound `CCCC#Cc1cnc(N2CCN(S(=O)(=O)C3(C(=O)NO)CCOCC3)CC2)s1` [Example 400], the Ki stood at 3.32 µM.
With `O=C(NO)C1(S(=O)(=O)N2CCN(c3ccc(-c4nn[nH]n4)cc3)CC2)CCOCC1` [Example 419], the Ki is > 10 µM.
As for `CCC(F)(F)CCc1ccc(C2CCN(S(=O)(=O)C3(C(=O)NO)CCOCC3)CC2)cn1` [Example 411], the figure is > 10 µM; as for `CCCCc1ccc(C2CCN(S(=O)(=O)C3(C(=O)NO)CCN(CCOC)CC3)CC2)nc1` [Example 397], > 10 µM.
As for `O=C(NO)C1(S(=O)(=O)N2CCN(c3nc(-c4ccccc4)cs3)CC2)CCOCC1` [Example 415], the figure is > 10 µM; as for `O=C(NO)C1(S(=O)(=O)N2CCC(COCc3ccc(C(F)(F)F)cc3)CC2)CCOCC1` [Example 403], > 10 µM; as for `Cc1ccc(-c2csc(N3CCN(S(=O)(=O)C4(C(=O)NO)CCOCC4)CC3)n2)cc1` [Example 412], > 10 µM.
Take `CCCCCCCOC1CCN(S(=O)(=O)C2(C(=O)NO)CCOCC2)CC1` [Example 406]: the Ki was 9.01 µM.
As for `O=C(NO)C1(S(=O)(=O)N2CCC(c3ccc(-c4ccccn4)cn3)CC2)CCOCC1` [Example 409], the figure is > 10 µM.
Regarding `CCCCc1ccc(C2(O)CCN(S(=O)(=O)C3(C(=O)NO)CCOCC3)CC2)nc1` [Example 420], the Ki is > 10 µM.
Take `CCCCCC/C=C\C1CCN(S(=O)(=O)C2(C(=O)NO)CCOCC2)CC1` [Example 401]: the Ki is > 10 µM.
To `O=C(NO)C1(S(=O)(=O)N2CCC(c3ccc(OCc4ccccc4)cn3)CC2)CCOCC1` [Example 398] belongs 1.95 µM.
On to `O=C(NO)C1(S(=O)(=O)N2CCC(c3ccc(N4CCCC4)cn3)CC2)CCOCC1` [Example 408], for which the inhibitory constant (Ki) is > 10 µM.
As for `Cc1ccc(-c2ccc(C3CCN(S(=O)(=O)C4(C(=O)NO)CCOCC4)CC3)nc2)s1` [Example 416], the figure is 6.42 µM.
